The record followed here is patent publication WO2020032435A1 (priority 2018, dated 2019).

The test system of one experiment is cAMP. Briefly: cAMP concentration in human dermal papilla cells, ELISA. It is filed as cell-based. Conditions: Human dermal papilla cell, 24 hours, DMSO negative control, read-out: increase in cAMP concentration. A general note: ELISA stands for enzyme-linked immunosorbent assay.
Experiment [1] relates to VEGF. Briefly: VEGF concentration in culture medium of human dermal papilla cells, ELISA. It is filed as cell-based. Conditions: Human dermal papilla cell, 24 hours, DMSO negative control, read-out: increase in VEGF concentration.
Experiment [2] concerns VEGF. Kind of experiment: VEGF mRNA expression in human dermal papilla cells, RT-PCR. Conditions: Human dermal papilla cell, 24 hours, read-out: increase in mRNA expression of VEGF. It is filed as cell-based.
In experiment [3] the test system is human dermal papilla cells. Kind of experiment: Cell proliferation of human dermal papilla cells, MTT assay. The note with it: 24 h, read-out: proliferation rate increase. On the technique in general: Formazan colour is commonly taken as a measure of viable cells.
The next experiment concerns IGF-1. Kind of experiment: IGF-1 concentration in culture medium of human dermal papilla cells, ELISA. It is filed as cell-based. The note with it: Human dermal papilla cell, 24 hours, DMSO negative control, read-out: increase in IGF-1 concentration.
For the next experiment, the system named is IGF. Kind of experiment: IGF-1 mRNA expression in human dermal papilla cells, RT-PCR. It is filed as cell-based. The note with it: Human dermal papilla cell, 24 hours, read-out: increase in mRNA expression of IGF.
For another experiment, the system named is cycD. Briefly: Cyclin D mRNA expression in human dermal papilla cells, RT-PCR. It is filed as cell-based. Conditions: Human dermal papilla cell, 24 hours, read-out: increase in mRNA expression of cycD.
Another experiment deals with LEF. Kind of experiment: LEF mRNA expression in human dermal papilla cells, RT-PCR. It is filed as cell-based. The note with it: Human dermal papilla cell, 24 hours, read-out: increase in mRNA expression of LEF.

On to `COc1ccc2ccccc2c1` [Yarayara, 2-methoxynaphthalene], for which the activation at 20 µM in the experiment with cAMP was 47%; in the experiment with VEGF [1], 30%; with VEGF [2], 274%; in experiment [3], 37%; in the experiment with IGF-1 it was 22%; in the experiment with IGF, 270%. The activation at 20 µM in the experiment on cycD was determined as 262%; in the experiment with LEF, 340%. In addition, the activation at 10 µM in experiment [3] was 10.6%. In addition, in experiment [3], the activation at 50 µM is 28%.
